# Legend:
# [1] = system: hIAPP oligomers in hIAPP+/− islets; test: hIAPP oligomer accumulation (A11 antibody staining) after serum-deprived culture; type: cell-based, mouse; settings: 72 hours serum-deprived culture, BSA+Compound 1 vs BSA group; FIG. 6F
# Protocol: Purified hIAPP^+/− FVB/N and C57BL/6J mouse were suspended in RPMI 1640 (Gibco, Grand Island, NY, USA) containing 100 IU/mL penicillin and 100 μg/mL streptomycin, and cultured at 37° C. in a fully humidified 5% CO2 atmosphere. Purified NHP islets were suspended in CMRL 1066 medium (Coming Life Sciences, Tewksbury, MA; catalog number 99-663-CV) containing 100 IU/mL penicillin and 100 μg/mL streptomycin, and cultured at 37° C. in a fully humidified 5% CO2 atmosphere. During the ex vivo culture of murine islets, three experimental groups were designated for experiments using hIAPP^+/− FVB/N and C57BL/6J mice islets: medium supplemented with 10% FBS (Tissue Culture Biologicals, Los Alamitos, CA, USA; catalog number 101; FBS group), medium supplemented with 0.625% bovine serum albumin (Qbiogene, Carlsbad, CA, USA; catalog number BSA003; BSA group), and medium supplemented with 0, 0.1, 1, 10 and 20 μM Compoun 1 plus 0.625% BSA (BSA+Compound 1 group). […]
# Accumulation of hIAPP oligomers was evaluated using sections of hIAPP^+/− mice islets stained with A11 Ab (anti-oligomer antibody, Invitrogen) and insulin antibody (Dako). […] To quantify accumulation of hIAPP oligomers per islet, the proportion of A11-stained cells among total DAPI+islet cells was determined using confocal microscopy.
# [2] = system: islets from hIAPP+/− FVB/N mice; test: Serum-deprived culture of mouse islets (viability, ROS); type: cell-based; settings: dose-dependent 0.1 μM to 20 μM
# Protocol: Purified hIAPP^+/− FVB/N and C57BL/6J mouse were suspended in RPMI 1640 (Gibco, Grand Island, NY, USA) containing 100 IU/mL penicillin and 100 μg/mL streptomycin, and cultured at 37° C. in a fully humidified 5% CO2 atmosphere. Purified NHP islets were suspended in CMRL 1066 medium (Coming Life Sciences, Tewksbury, MA; catalog number 99-663-CV) containing 100 IU/mL penicillin and 100 μg/mL streptomycin, and cultured at 37° C. in a fully humidified 5% CO2 atmosphere. […]
# The viability of islets was evaluated using Alamar blue staining according to the manufacturer's protocol (Invitrogen, Grand Island, NY, USA). […] The fluorescence intensity of each well was measured at 570/585 nm (excitation/emission) using a GloMax-Multi Plus Detection System (Promega, Fitchburg, WI, USA), and the values were normalized to a blank.
# The oxidative stress levels in hIAPP^+/− mouse islets were determined right after islet isolation and after ex vivo culture of isolated islets. The oxidative stress of the islets was quantified using a fluorescence-based intracellular ROS detection method and by estimating the concentration of malondialdehyde (MDA), a by-product of lipid peroxidation. The formation of total ROS, superoxide ion and nitric oxide was determined using a reactive oxygen species detection kit (ENZ-51011, Enzo Life Sciences, Farmingdale, New York, USA). […]
smiles,measurement,setting,value
O=S1(=O)CCN(Cc2cc(NC3CCOCC3)c3[nH]c(-c4ccccc4)cc3c2)CC1 [Compound 1],proportion of accumulation of hIAPP oligomers,[1],significantly decreased
same,relative cell viability,[2]; FIG. 4D,significantly increased
same,serum deprivation-induced ROS,[2]; FIG. 4F,decreased
